Source: ChEMBL document CHEMBL5550110, “An insight into the mechanistic role of (-)-Ampelopsin F from Vatica chinensis L. in inducing insulin secretion in pancreatic beta cells” (Bioorg Med Chem, 2024)
The source made the active and inactive calls. The rule behind the calls is not given here.

Key:
Beta-TC6 [1] = assay: Induction of mitochondrial membrane hyperpolarization in mouse Beta-TC6 cells at 0.1 uM after 24 hrs by JC-1 staining based fluorescence microscopy analysis; assay type: cell-based
Beta-TC6 [2] = assay: Induction of calcium level in mouse Beta-TC6 cells assessed as fold increase at 0.1 uM incubated for 30 mins by Fura-2 AM staining based fluorescence microscopy analysis relative to control; assay type: functional; conditions: 0.5 h
Beta-TC6 [3] = assay: Induction of insulin secretion in mouse Beta-TC6 cells assessed as fold increase at 0.1 uM incubated for 24 hrs by ELISA relative to control; assay type: functional
[4] = Induction of glucokinase expression in mouse Beta-TC6 cells assessed as fold increase at 0.1 uM incubated for 24 hrs by Western blotting analysis relative to control; assay type: functional
Beta-TC6 [5] = assay: Induction of mitochondrial membrane hyperpolarization in mouse Beta-TC6 cells at 0.9 uM after 24 hrs by JC-1 staining based fluorescence microscopy analysis; assay type: cell-based
Beta-TC6 [6] = assay: Cytotoxicity against mouse Beta-TC6 cells assessed as reduction in cell viability at 50 uM incubated for 24 hrs by MTT assay; assay type: toxicity, cell-based; conditions: beta-tc6, 24 h
[7] = target: Dipeptidyl peptidase 4 (Mus musculus) (UniProt P28843); assay: Inhibition of DPP4 in mouse Beta-TC6 cells assessed as reduction in AMC production at 50 uM measured every min by fluorescence plate reader assay relative to control; assay type: cell-based
Beta-TC6 [8] = assay: Induction of calcium level in mouse Beta-TC6 cells assessed as fold increase at 50 uM incubated for 30 mins by Fura-2 AM staining based fluorescence microscopy analysis relative to control; assay type: functional; conditions: 0.5 h
Beta-TC6 [9] = assay: Induction of insulin secretion in mouse Beta-TC6 cells assessed as fold increase at 50 uM incubated for 24 hrs by ELISA relative to control; assay type: functional
[10] = Induction of GLUT2 expression in mouse Beta-TC6 cells assessed as fold increase at 50 uM incubated for 24 hrs by Western blotting analysis relative to control; assay type: functional
[11] = target: Dipeptidyl peptidase 4 (Mus musculus) (UniProt P28843); assay: Inhibition of DPP4 in mouse Beta-TC6 cells assessed as reduction in AMC production at 50 uM measured every min by fluorescence plate reader assay relative to positive control; assay type: cell-based
Beta-TC6 [12] = assay: Induction of mitochondrial membrane hyperpolarization in mouse Beta-TC6 cells at 50 uM after 24 hrs by JC-1 staining based fluorescence microscopy analysis; assay type: cell-based
[13] = Induction of glucokinase expression in mouse Beta-TC6 cells assessed as fold increase at 50 uM incubated for 24 hrs by Western blotting analysis relative to control; assay type: functional

Sequence of Dipeptidyl peptidase 4 (Mus musculus) (P28843 whole entry, looked up): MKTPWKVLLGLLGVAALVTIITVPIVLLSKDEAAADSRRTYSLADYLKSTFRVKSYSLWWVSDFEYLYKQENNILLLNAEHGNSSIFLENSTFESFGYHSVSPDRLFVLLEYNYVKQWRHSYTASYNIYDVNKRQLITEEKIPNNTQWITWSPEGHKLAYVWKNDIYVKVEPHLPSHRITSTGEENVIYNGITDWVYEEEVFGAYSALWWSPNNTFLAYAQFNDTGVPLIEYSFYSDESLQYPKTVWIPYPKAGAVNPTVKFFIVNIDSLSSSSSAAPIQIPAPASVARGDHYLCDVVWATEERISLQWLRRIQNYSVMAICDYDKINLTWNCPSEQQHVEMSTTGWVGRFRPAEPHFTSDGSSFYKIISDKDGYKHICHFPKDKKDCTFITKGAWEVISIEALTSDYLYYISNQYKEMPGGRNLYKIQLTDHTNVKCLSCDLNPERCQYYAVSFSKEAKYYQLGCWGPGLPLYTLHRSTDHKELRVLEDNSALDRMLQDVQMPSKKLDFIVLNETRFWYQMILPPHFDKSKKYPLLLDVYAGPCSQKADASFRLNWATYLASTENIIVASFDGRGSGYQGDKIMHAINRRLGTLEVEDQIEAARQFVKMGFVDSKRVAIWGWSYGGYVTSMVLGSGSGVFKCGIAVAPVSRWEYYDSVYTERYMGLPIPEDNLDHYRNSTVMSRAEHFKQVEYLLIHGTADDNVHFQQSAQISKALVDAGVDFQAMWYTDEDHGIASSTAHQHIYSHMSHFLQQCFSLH

COc1ccc(Cl)cc1C(=O)NCCc1ccc(S(=O)(=O)NC(=O)NC2CCCCC2)cc1 [GLYBURIDE]
Activity (Beta-TC6 [1]): Active
fold change (FC) (Beta-TC6 [2]): 2
fold change (FC) (Beta-TC6 [3]): 4
fold change (FC) [4]: 2

CC(C)[C@@H]1NC(=O)[C@H](C)OC(=O)[C@@H](C(C)C)NC(=O)[C@@H](C(C)C)OC(=O)[C@H](C(C)C)NC(=O)[C@H](C)OC(=O)[C@@H](C(C)C)NC(=O)[C@@H](C(C)C)OC(=O)[C@H](C(C)C)NC(=O)[C@H](C)OC(=O)[C@@H](C(C)C)NC(=O)[C@@H](C(C)C)OC1=O
Activity (Beta-TC6 [5]): inactive

Oc1ccc([C@@H]2c3c(O)cc(O)cc3[C@H]3c4c(O)cc(O)cc4[C@H]2[C@@H]3c2ccc(O)cc2)cc1
Activity (Beta-TC6 [6]): < 15%
inhibition [7]: 63%
fold change (FC) (Beta-TC6 [8]): 2
fold change (FC) (Beta-TC6 [9]): 3.5
fold change (FC) [10]: 1.5
inhibition [11]: 85%
Activity (Beta-TC6 [12]): Active
fold change (FC) [13]: 2.5
